Assay results: patent publication US20250221410A1, “SUBSTITUTED 2-C-AZINES AND SALTS THEREOF, AND USE THEREOF AS HERBICIDAL ACTIVE SUBSTANCES” (BAYER AKTIENGESELLSCHAFT, priority 2022, published 2025)

Experiments:
Type in all cases: in vivo
[1] = tested on: DIGSA: Digitaria sanguinalis; assay: Pre-emergence herbicide efficacy at 1280 g/ha, DIGSA; conditions: visual scoring after about 3 weeks vs untreated controls
In short: (§1)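 Weed seeds were sown in sandy loam, covered with soil, and the soil surface was treated with the compound, formulated as wettable powder or emulsion concentrate, in water containing 0.5% additive at 600 L/ha. Plants then grew in the greenhouse for roughly 3 weeks before percentage efficacy was scored by eye against untreated controls.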

[2] = tested on: AMARE: Amaranthus retroflexus; assay: Pre-emergence herbicide efficacy at 80 g/ha, AMARE; conditions: scored visually after about 3 weeks
In short: (§2)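 Seeds are placed in pots and covered with soil, then the soil surface is treated with the formulated compound in water plus 0.5% additive (600 l/ha equivalent). Plants grow under good greenhouse conditions, and damage is rated visually as a percentage of untreated controls after roughly 3 weeks.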

[3] = tested on: AMARE: Amaranthus retroflexus; assay: Post-emergence herbicidal efficacy at 1280 g/ha, AMARE; conditions: rated visually after about 3 weeks vs untreated controls, 100% = plants have died, 0% = like control plants
In short: (§3)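 Plants treated 2–3 weeks post-sowing, one-leaf stage, foliar spray of WP or EC preparations with 0.5% additive at a water rate equivalent to 600 L/ha. Kept under optimum greenhouse conditions ~3 weeks, then scored visually on a 0–100% scale.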

[4] = tested on: VIOTR: Viola tricolor; assay: Post-emergence herbicidal efficacy at 80 g/ha, VIOTR; conditions: visual rating about 3 weeks after treatment vs untreated controls
Procedure: (§4) Seeds of monocotyledonous and dicotyledonous weeds and crop plants were placed in sandy loam in plastic or organic planting pots, covered with soil and cultivated in a greenhouse under controlled growth conditions. 2 to 3 weeks after sowing, the test plants were treated at the one-leaf stage. The compounds of the invention, formulated in the form of wettable powders (WP) or as emulsion concentrates (EC), were then sprayed onto the green parts of the plants as aqueous suspension or emulsion with addition of 0.5% additive at a water application rate of 600 l/ha (converted). After the test plants had been kept in the greenhouse under optimum growth conditions for about 3 weeks, the activity of the preparations was rated visually in comparison to untreated controls. For example, 100% activity=the plants have died, 0% activity=like control plants. Tables B1 to B10 below show the effects of selected compounds of the general formula (I) according to Table 1 on various harmful plants and an application rate corresponding to 80 g/ha, which were obtained by the experimental procedure mentioned above.

[5] = tested on: MATIN: Matricaria inodora; assay: Pre-emergence herbicide efficacy at 80 g/ha, MATIN; conditions: scored visually after about 3 weeks
Source text: (§5) Seeds of monocotyledonous and dicotyledonous weed plants and crop plants were placed in plastic or organic planting pots and covered with soil. The compounds of the invention, formulated in the form of wettable powders (WP) or as emulsion concentrates (EC), were then applied to the surface of the covering soil as aqueous suspension or emulsion with addition of 0.5% additive at a water application rate equivalent to 600 l/ha. After the treatment, the pots were placed in a greenhouse and kept under good growth conditions for the test plants. After about 3 weeks, the efficacy of the preparations was scored visually in comparison with untreated controls as percentages. For example, 100% activity=the plants have died, 0% activity=like control plants. Tables D1 to D12 below show the effects of selected compounds of the general formula (I) according to Table 1 on various harmful plants and an application rate corresponding to 80 g/ha, which were obtained by the experimental procedure mentioned above.

[6] = tested on: ABUTH: Abutilon theophrasti; assay: Pre-emergence herbicide efficacy at 80 g/ha, ABUTH; conditions: scored visually after about 3 weeks
In short: as §2

[7] = tested on: SETVI: Setaria viridis; assay: Pre-emergence herbicide efficacy at 1280 g/ha, SETVI; conditions: visual scoring vs untreated controls
In short: as §1

[8] = tested on: SETVI: Setaria viridis; assay: Post-emergence herbicidal efficacy at 1280 g/ha, SETVI; conditions: visual rating about 3 weeks after treatment vs untreated controls
In short: as §3

[9] = tested on: ECHCG: Echinochloa crus-galli; assay: Pre-emergence herbicide efficacy at 1280 g/ha, ECHCG; conditions: visual scoring after about 3 weeks vs untreated controls
In short: as §1

[10] = tested on: MATIN: Matricaria inodora; assay: Post-emergence herbicidal efficacy at 1280 g/ha, MATIN; conditions: visual rating about 3 weeks after treatment vs untreated controls
Procedure: (§6) Seeds of mono- and dicotyledonous weed plants were placed in plastic pots in sandy loam soil (doubly sown with in each case one species of mono- or dicotyledonous weed plants per pot), covered with soil and cultivated in a greenhouse under controlled growth conditions. 2 to 3 weeks after sowing, the test plants were treated at the one-leaf stage. The compounds of the invention, formulated in the form of wettable powders (WP) or as emulsion concentrates (EC), were applied to the green parts of the plants as aqueous suspension or emulsion with addition of 0.5% additive at a water application rate equivalent to 600 litres per hectare. After the test plants had been kept in the greenhouse under optimum growth conditions for about 3 weeks, the activity of the preparations was rated visually in comparison to untreated controls. For example, 100% activity=the plants have died, 0% activity=like control plants. Tables A1 to A12 below show the effects of selected compounds of the general formula (I) according to Table 1 on various harmful plants and at an application rate corresponding to 1280 g/ha, which were obtained by the trial procedure specified above.

[11] = tested on: SETVI: Setaria viridis; assay: Pre-emergence herbicide efficacy at 80 g/ha, SETVI; conditions: scored visually after about 3 weeks
Source text: as §5

[12] = tested on: STEME: Stellaria media; assay: Pre-emergence herbicide efficacy at 1280 g/ha, STEME; conditions: visual scoring vs untreated controls
In short: as §1

[13] = tested on: VERPE: Veronica persica; assay: Post-emergence herbicidal efficacy at 1280 g/ha, VERPE; conditions: visual rating about 3 weeks after treatment vs untreated controls
In short: as §3

[14] = tested on: KCHSC: Kochia scoparia; assay: Pre-emergence herbicide efficacy at 80 g/ha, KCHSC; conditions: scored visually after about 3 weeks
Source text: as §5

[15] = tested on: ECHCG: Echinochloa crus-galli; assay: Post-emergence herbicidal efficacy at 1280 g/ha, ECHCG; conditions: rated visually after about 3 weeks vs untreated controls, 100% = plants have died, 0% = like control plants
In short: as §3

[16] = tested on: MATIN: Matricaria inodora; assay: Pre-emergence herbicide efficacy at 1280 g/ha, MATIN; conditions: visual scoring after about 3 weeks vs untreated controls
In short: as §1

[17] = tested on: DIGSA: Digitaria sanguinalis; assay: Pre-emergence herbicide efficacy at 80 g/ha, DIGSA; conditions: scored visually after about 3 weeks
Source text: as §5

[18] = tested on: KCHSC: Kochia scoparia; assay: Post-emergence herbicidal efficacy at 1280 g/ha, KCHSC; conditions: visual rating about 3 weeks after treatment vs untreated controls
In short: as §3

[19] = tested on: KCHSC: Kochia scoparia; assay: Pre-emergence herbicide efficacy at 1280 g/ha, KCHSC; conditions: visual scoring after about 3 weeks vs untreated controls
In short: as §1

[20] = tested on: AMARE: Amaranthus retroflexus; assay: Pre-emergence herbicide efficacy at 1280 g/ha, AMARE; conditions: visual scoring after about 3 weeks vs untreated controls
In short: as §1

[21] = tested on: POAAN: Poa annua; assay: Pre-emergence herbicide efficacy at 1280 g/ha, POAAN; conditions: visual scoring after about 3 weeks vs untreated controls
In short: as §1

[22] = tested on: VIOTR: Viola tricolor; assay: Pre-emergence herbicide efficacy at 80 g/ha, VIOTR; conditions: scored visually after about 3 weeks
Source text: as §5

[23] = tested on: ABUTH: Abutilon theophrasti; assay: Post-emergence herbicidal efficacy at 1280 g/ha, ABUTH; conditions: rated visually after about 3 weeks vs untreated controls, 100% = plants have died, 0% = like control plants
In short: as §3

[24] = tested on: STEME: Stellaria media; assay: Post-emergence herbicidal efficacy at 1280 g/ha, STEME; conditions: visual rating about 3 weeks after treatment vs untreated controls
In short: as §3

[25] = tested on: VERPE: Veronica persica; assay: Pre-emergence herbicide efficacy at 80 g/ha, VERPE; conditions: scored visually after about 3 weeks
In short: as §2

[26] = tested on: VERPE: Veronica persica; assay: Post-emergence herbicidal efficacy at 80 g/ha, VERPE; conditions: visual rating about 3 weeks after treatment vs untreated controls
In short: (§7)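 One-leaf-stage weeds in sandy loam were treated with aqueous suspensions or emulsions (0.5% additive, 600 l/ha) and held in the greenhouse for about 3 weeks before visual rating on a 0–100% scale versus untreated controls.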

[27] = tested on: LOLRI: Lolium rigidum; assay: Pre-emergence herbicide efficacy at 1280 g/ha, LOLRI; conditions: visual scoring after about 3 weeks vs untreated controls
Source text: (§8) Seeds of mono- and dicotyledonous weed plants were placed in plastic pots in sandy loam soil (doubly sown with one species each of mono- or dicotyledonous weed plants per pot) and covered with soil. The compounds of the invention, formulated in the form of wettable powders (WP) or as emulsion concentrates (EC), were then applied to the surface of the covering soil as aqueous suspension or emulsion with addition of 0.5% additive at a water application rate of 600 litres per hectare (converted). After the treatment, the pots were placed in a greenhouse and kept under good growth conditions for the test plants. After about 3 weeks, the efficacy of the preparations was scored visually in comparison with untreated controls as percentages. For example, 100% activity=the plants have died, 0% activity=like control plants. Tables C1 to C12 below show the effects of selected compounds of the general formula (I) according to Table 1 on various harmful plants and at an application rate corresponding to 1280 g/ha, which were obtained by the trial procedure specified above.

[28] = tested on: VERPE: Veronica persica; assay: Pre-emergence herbicide efficacy at 1280 g/ha, VERPE; conditions: visual scoring vs untreated controls
In short: as §1

[29] = tested on: ALOMY: Alopecurus myosuroides; assay: Pre-emergence herbicide efficacy at 1280 g/ha, ALOMY; conditions: visual scoring after about 3 weeks vs untreated controls
Source text: as §8

[30] = tested on: POAAN: Poa annua; assay: Post-emergence herbicidal efficacy at 1280 g/ha, POAAN; conditions: visual rating about 3 weeks after treatment vs untreated controls
In short: as §3

[31] = tested on: ABUTH: Abutilon theophrasti; assay: Pre-emergence herbicide efficacy at 1280 g/ha, ABUTH; conditions: visual scoring after about 3 weeks vs untreated controls
In short: as §1

[32] = tested on: AMARE: Amaranthus retroflexus; assay: Post-emergence herbicidal efficacy at 80 g/ha, AMARE; conditions: visual rating about 3 weeks after treatment vs untreated controls
In short: as §7

[33] = tested on: KCHSC: Kochia scoparia; assay: Post-emergence herbicidal efficacy at 80 g/ha, KCHSC; conditions: visual rating about 3 weeks after treatment vs untreated controls
Procedure: as §4

[34] = tested on: ALOMY: Alopecurus myosuroides; assay: Post-emergence herbicidal efficacy at 1280 g/ha, ALOMY; conditions: rated visually after about 3 weeks vs untreated controls, 100% = plants have died, 0% = like control plants
Procedure: as §6

[35] = tested on: DIGSA: Digitaria sanguinalis; assay: Post-emergence herbicidal efficacy at 1280 g/ha, DIGSA; conditions: rated visually after about 3 weeks vs untreated controls, 100% = plants have died, 0% = like control plants
In short: as §3

[36] = tested on: LOLRI: Lolium rigidum; assay: Post-emergence herbicidal efficacy at 1280 g/ha, LOLRI; conditions: visual rating about 3 weeks after treatment vs untreated controls
Procedure: as §6

SMILES	Pre-emergence efficacy against DIGSA [1]	Post-emergence efficacy at 1280 g/ha against AMARE in % [3]	Post-emergence efficacy against VIOTR [4]	Pre-emergence efficacy against SETVI in % [7]	Post-emergence efficacy against SETVI [8]	Pre-emergence efficacy against ECHCG [9]	Pre-emergence efficacy against STEME in % [12]	Post-emergence efficacy against VERPE [13]	Post-emergence efficacy at 1280 g/ha against ECHCG in % [15]	Pre-emergence efficacy against MATIN [16]	Post-emergence efficacy against KCHSC [18]	Pre-emergence efficacy against KCHSC [19]	Pre-emergence efficacy against AMARE [20]	Pre-emergence efficacy against POAAN [21]	Pre-emergence efficacy against VIOTR in % [22]	Post-emergence efficacy at 1280 g/ha against ABUTH in % [23]	Post-emergence efficacy against STEME [24]	Post-emergence efficacy against VERPE [26]	Pre-emergence efficacy against LOLRI [27]	Pre-emergence efficacy against VERPE in % [28]	further results
Cc1cccc(Oc2ncc(F)cn2)c1Cc1ncc(Cl)cn1 [Example 1-65]	100%	100%	100%	100%	90%	100%	100%	100%	90%	100%	100%	100%	100%	100%	100%	100%	100%	90%	100%	100%	Pre-emergence efficacy against AMARE in % [2]: 100%; Pre-emergence efficacy against MATIN in % [5]: 100%; Pre-emergence efficacy against ABUTH in % [6]: 90%; Post-emergence efficacy against MATIN [10]: 100%; Pre-emergence efficacy against SETVI in % [11]: 90%; Pre-emergence efficacy against KCHSC in % [14]: 100%; Pre-emergence efficacy against DIGSA in % [17]: 90%; Pre-emergence efficacy against VERPE in % [25]: 100%; Pre-emergence efficacy against ALOMY [29]: 90%; Post-emergence efficacy against POAAN [30]: 100%; Pre-emergence efficacy against ABUTH [31]: 100%
Fc1ccc(Oc2c(Cc3ncc(Cl)cn3)cccc2C(F)(F)F)cc1 [Example 1-40]	100%	100%	100%	100%	90%	100%	100%	100%	100%	90%	100%	90%	100%	100%	100%	100%	100%	90%	100%	100%	Post-emergence efficacy against AMARE [32]: 90%; Post-emergence efficacy against KCHSC [33]: 90%; Post-emergence efficacy at 1280 g/ha against ALOMY in % [34]: 100%; Post-emergence efficacy at 1280 g/ha against DIGSA in % [35]: 90%; Post-emergence efficacy against LOLRI [36]: 100%; Pre-emergence efficacy against ALOMY [29]: 100%; Post-emergence efficacy against POAAN [30]: 90%; Pre-emergence efficacy against ABUTH [31]: 100%
